Patent publication US9546129B2, “DTPA prodrugs, compositions thereof, and methods of using the same” (priority 2012, dated 2017)

Assays:
[1] = comparison values; cited from earlier work
^241Am contaminated rats [2] = experiment: C2E2 single dose ^241Am decorporation in rats (IM contamination); type: in vivo, Sprague Dawley rat; conditions: DTPA 14 mg/kg IV, ad lib; single dose 24 h after IM ^241Am, 7 days, female rats
Experimental: This study was to assess the efficacy of a single oral gavage dose of C2E2 in ^241Am contaminated rats. A 200 μL aliquot was withdrawn from a stock solution of ^241Am nitrate (0.1 mCi in 5 mL 1 M HNO3), evaporated to dryness, dissolved in concentrated HNO3 (15 M, 5 mL) then evaporated to dryness and dissolved in dilute HNO3 (0.1 M, 8 mL) to form the injection solution. Groups of 4 female Sprague-Dawley rats were contaminated with 250 nCi of ^241Am nitrate by IM injection ([…]) then were administered single doses of C2E2 by gavage at 200, 600, or 1000 mg/kg under ad lib feeding conditions utilizing a 10% w/w solution in sterile water (dose volumes were 2, 6, and 10 mL/kg, for the 200, 600, and 1000 mg/kg doses, respectively). For the fasted component of the study, the animals were fasted 24 hours before treatment then for 2 hours post drug administration. Control groups with ad lib access to food and water were either untreated or administered an IV dose of the calcium salt of DTPA (Ca-DTPA) at 14 mg/kg (target dose volume of 0.7 mL/kg and concentration of 20 mg/mL). Treatment was administered 1 day after contamination. All animals were euthanized 7 days after contamination and the following tissues were collected: liver, both kidneys, both femurs as well as the ipsilateral and the contralateral hind leg muscle tissue and the pelt from the injection site. Urine and feces were collected from the time of contamination through euthanasia. Cage washings were also collected at the end of the study and considered part of total urine collection. Two aliquots (100 μL) of the injection solution were removed and ^241Am gamma activity was determined using radiomatic detection. The average of these standards is the injected dose used for all animals. All tissues and samples were counted in a similar manner. Americium content was expressed as a percentage of the injected dose. Overall recovery of radioactivity across all groups in this study was approximately 90%. […] The primary route by which both DTPA and C2E2 enhanced elimination of ^241Am occurred was by urinary clearance. […] Fecal clearance of ^241Am was not altered by feeding status, an observation that is consistent with the similar liver burden between the two groups at the end of the study. […] As with DTPA, enhanced decorporation by C2E2 occurred through enhanced urinary clearance.
Male and female Sprague Dawley rats (n=4/gender/dose) were administered single oral doses of diethylenetriaminepentaacetic acid diethyl ester (C2E2) by gavage 24 hours after intramuscular contamination with ^241Am(NO3)3 (250 nCi) under ad libitum and fasted conditions. Animals received single oral nominal doses of 200, 600, or 1000 mg/kg C2E2. Untreated animals and animals treated with an intravenous dose of Ca-DTPA ([…]) 24 hours after contamination served as controls; only ad libitum conditions were used for control animals. Total radionuclide decorporation and radionuclide tissue burden were evaluated seven days after contamination.
Male and female Sprague Dawley rats were contaminated with ^241Am(NO3)3 (0.25 μCi) by intramuscular injection (0.1 mL, 0.1 M HNO3) into the right hind leg, under isoflurane anesthesia. Immediately after injection, body weights were recorded (Day 0 weight) and animals were placed in individual metabolic cages.
Approximately eight hours after contamination—and 16 hours before test article administration—rats assigned to the Fasted groups had access to food restricted by removing the food chamber from their metabolic cages and collecting all loose chow from their housing chambers. Food chambers were replaced 1 hour after oral gavage treatment, restoring access to food. At all other times all animals had ad libitum access to food.
Male and female Sprague-Dawley rats assigned to test groups each received a single oral gavage dose of 0, 200, 600, or 1000 mg/kg of C2E2 utilizing a 10% w/w solution in water 24 hours after contamination. […]

[3] = Body weights and clinical observations in the rat single dose decorporation study; type: in vivo, Sprague Dawley rat; conditions: iv Ca-DTPA 14 mg/kg, ad libitum; for Mean body weight: in g (unit assumed)
Text: Each rat was weighed at contamination (Day 0) and the terminal body weight (Day 7) was taken at necropsy.

[4] = Stability study in water (pH and precipitation of solubility samples); type: physicochemical; conditions: for Precipitation on storage (observation): room temperature, 4° C., −20° C.
Experimental: Method 2 was used to prepare the C2E2 for the dosing formulations. Specifically, Lots 050 and 005-2 were prepared using Method 2, whereas the Reference standard and MTD Lot were prepared using Method 1. For the dosing formulations, de-ionized water (DI water tap in room 18/19) was used with the C2E2 prepared using Method 2. The dosing formulations were compared with C2E2 formulations prepared using Milli-Q water. The pH of each sample was recorded and the values are listed below in Table 2.
In order to re-create the unusual solutions, 1-mL samples of C2E2 (Lots 005-2 and 050; MTD Lot; and Reference std) were made at concentrations of 100 mg/mL in Milli-Q water. A set of samples was stored at room temperature, in the refrigerator (4° C.), and in the −20° C. freezer. […] Storage at 4° C. exacerbates the precipitation of Lot 050. After 8 days, both the Reference Standard and Lot 050 have significant amounts of solid detected at 4° C. and room temperature and crystals have started to form. […] While not wishing to be bound to any particular theory, this is likely because more impurities increase the solubility.

[5] = Polymorph stability (DSC, competitive ripening, storage); type: physicochemical; conditions: higher melting point, lower solubility
Experimental: Samples of C2E2 (˜5 mg) were crimped and evaluated by DSC over a range of 25° C. to 320° C. with a heating rate of 10.00° C./min. A sample was also cycled three times from 25 to 150° C. with a heating rate of 10° C./min and a cooling rate of 5° C./min. Both the MTD Lot and the Reference Standard show a melting point near 120° C. Lot 050 has a melting point of about 140° C.
50 mg each of Lot 050 and the Reference standard were combined in 500 μL of water and stirred at room temperature overnight. After stirring, the remaining solid was filtered from the liquid, allowed to dry and analyzed by DSC.

[6] = Protonation constants by potentiometric titration; type: physicochemical; conditions: 5 mM ligand in 0.15 M KCl
Experimental: The protonation constants for C2E2 were determined by preparing a 5 mM solution of free ligand in 0.15 M KCl. The constants were calculated from three replicates, with each experiment consisting of a titration with acid, followed by a titration with base. After each addition of titrant, a 30 second equilibration time passed before pH measurement with a Seven Easy pH meter and (Ag/AgCl reference) glass electrode (Metler Tolledo). At the end of the titrations, the presence of C2E2 was confirmed by HPLC-CAD. Evaluation of the titration curve for C2E2 (FIG. 31) identified 6 pKa values that correspond with the three tertiary amines and three carboxylic acids. The values were determined by refinement using […] software. The pKa values determined for C2E2 are consistent with DTPA analogues previously investigated for use as MRI contrast agents with two carboxylic acids are functionalized such as DTPA-BMA and DTPA-BBA (Rizkalla, E. N., et al., Inorganic Chemistry, 32, 582-586, (1993) and Geraldes C. F., et al., Journal of the Chemical Society-Dalton Transactions, 327-335 (1995)).

^241Am contaminated rats [7] = experiment: Once vs twice daily dosing ^241Am decorporation study in rats; type: in vivo, Sprague Dawley rat; conditions: Zn-DTPA 13.3 mg/kg intravenous daily x5, male rats, seven days after IM ^241Am
Experimental: The animal study was conducted according to a protocol approved by The University of North Carolina at Chapel Hill Institutional Animal Care and Use Committee. Sixteen male Sprague Dawley rats were contaminated with ^241Am(NO3)3 (0.25 μCi) by intramuscular injection (0.1 mL, 0.1 M HNO3) into the right hind leg, under isoflurane anesthesia. Immediately after injection, body weights were recorded (Day 0 weight) and animals placed in individual metabolic cages. The 16 rats were assigned to four groups; untreated control, 5 daily oral gavage doses of 600 mg/kg C2E2 once daily, 5 days of oral gavage treatment of 300 mg/kg C2E2 twice daily or 5 daily intravenous doses of Zn-DTPA solution (13.3 mg/kg) via a jugular vein catheter. The C2E2 was from Lot 050 obtained using Method 2. The C2E2 dosing solution utilized was a 10% w/w solution in water. […] Excreted urine and feces were collected at 2, 4, 8, 10, 12, 14, 18, 20 and 24 hours after the first dose and daily for the remainder of the study. The samples were transferred to 20 mL scintillation vials, weighed and placed in a gamma counter (Wizard2 2480, Perkin Elmer) for detection of ^241Am gamma activity. In addition, following necropsy, selected tissues were removed, weighed and placed in a gamma counter (Wizard2 2480, Perkin Elmer) for detection of ^241Am gamma activity. The total amount of ^241Am administered to the animals was determined by quantifying the 59.7 keV photons emitted by ^241Am in duplicate aliquots (100 μL) of the injection solution using a gamma counter (wizard series, Perkin-Elmer). A counting window from 40-80 keV and a 60-second counting time were used for acquisition and each reading was corrected for background at acquisition. All experimental tissues and samples were counted using the same gamma counter and protocol. For all the samples, ^241Am content was expressed as a percentage of the initial dose. The femur from the leg opposite to the injection site was scaled by a factor of 20 to estimate total skeletal ^241Am burden.

In the case of “diethylenetriamine pentaacetic acid [DTPA]”, the “Stability of the gadolinium complex, log K” value [1] is given as 22.5, the “Cage Wash ^241Am” value (^241Am contaminated rats [2]) is given as 3.6 ± 0.8% and the “Feces ^241Am” value (^241Am contaminated rats [2]) is given as 10.3 ± 1.7%. The Liver burden (^241Am contaminated rats [2]) was 12.3 ± 1.2 % injected, the “Total Decorporation” value (^241Am contaminated rats [2]) was 36.1 ± 4.6 % injected and the “Urine ^241Am” value (^241Am contaminated rats [2]) was 22.1 ± 2.6%.

For `O=C([O-])CN(CCN(CC(=O)[O-])CC(=O)[O-])CCN(CC(=O)[O-])CC(=O)[O-].[Ca+2].[Na+].[Na+].[Na+]` [Ca-DTPA, reference compound], the “Mean Percentage Body Weight Change” value ([3]; Female) was −0.1 ± 1.9%, the “Mean Percentage Body Weight Change” value ([3]; Male) was 4.5 ± 6.1% and the Mean body weight ([3]; female rats, Day 0) was 273.6 ± 7.7. It also gave a Mean body weight ([3]; female rats, Day 7 (terminal)) of 273.3 ± 11.2, a Mean body weight ([3]; male rats, Day 0) of 301.0 ± 4.0 and a Mean body weight ([3]; male rats, Day 7 (terminal)) of 314.6 ± 20.4.

In the case of `CCOC(=O)CN(CCN(CCN(CC(=O)O)CC(=O)OCC)CC(=O)O)CC(=O)O` [Reference Standard, 6,9-bis(carboxymethyl)-3-(2-ethoxy-2-oxoethyl)-11-oxo-12-oxa-3,6,9-triazatetradecan-1-oic acid], the “Time at which material starts to precipitate” value ([4]; 100 mg/mL in Milli-Q water, regardless of storage temperature) is reported as ≤ 24 h and the “pH of formulations prepared using Milli-Q water” value (from here on “pH … using Milli-Q water”) ([4]; 100 mg/mL, listed as Purified C2E2 (Reference std)) is reported as 2.43.

For `CCOC(=O)CN(CCN(CCN(CC(=O)O)CC(=O)OCC)CC(=O)O)CC(=O)O` [Lot 050, 6,9-bis(carboxymethyl)-3-(2-ethoxy-2-oxoethyl)-11-oxo-12-oxa-3,6,9-triazatetradecan-1-oic acid], the “pH of formulations prepared using de-ionized water” value (shortened to “pH … using de-ionized water”) ([4]; 20 mg/mL) was 3.04, the “pH … using de-ionized water” value ([4]; 60 mg/mL) was 2.93 and the “pH … using Milli-Q water” value ([4]; 100 mg/mL) was 2.60. For the same molecule, the “pH … using de-ionized water” value ([4]; 100 mg/mL) was 2.93, the “Precipitation on storage (observation)” value ([4]; 100 mg/mL in Milli-Q water) was “begins to come out of solution after three days” and the “Relative stability of polymorph” value [5] was “most stable”.

For `CCOC(=O)CN(CCN(CCN(CC(=O)O)CC(=O)OCC)CC(=O)O)CC(=O)O` [MTD Lot, 6,9-bis(carboxymethyl)-3-(2-ethoxy-2-oxoethyl)-11-oxo-12-oxa-3,6,9-triazatetradecan-1-oic acid], the “pH … using Milli-Q water” value ([4]; 100 mg/mL) was 2.35 and the “Precipitation on storage (observation)” value ([4]; 100 mg/mL in Milli-Q water) was “do not come out of solution”.

Molecule `CCOC(=O)CN(CCN(CCN(CC(=O)O)CC(=O)O)CC(=O)O)CC(=O)O` [C2E1] has a PKa2 [6] of 2.99 ± 0.05, a pKa1 [6] of 6.35 and a pKa3 [6] of 1.72 ± 1.5. For the same molecule, the pKa4 [6] was 1.18 ± 0.45, the pKa5 [6] was <1.5 and the pKa6 [6] was <1.5.

For `O=C(O)CN(CCN(CC(=O)O)CC(=O)O)CC(=O)O` [EDTA], the “Stability of the gadolinium complex, log K” value [1] is given as 17.0.

In the case of `O=C([O-])CN(CCN(CC(=O)[O-])CC(=O)[O-])CCN(CC(=O)[O-])CC(=O)[O-].[Na+].[Na+].[Na+].[Zn+2]` [i.v. Control, reference compound], the “Total Decorporation” value (^241Am contaminated rats [7]) is reported as 54.0 ± 3.9 % of injected dose.

With `CCOC(=O)CN(CCN(CCN(CC(=O)O)CC(=O)OCC)CC(=O)O)CC(=O)O` [Lot 005-2, 6,9-bis(carboxymethyl)-3-(2-ethoxy-2-oxoethyl)-11-oxo-12-oxa-3,6,9-triazatetradecan-1-oic acid] the “pH … using Milli-Q water” value ([4]; 100 mg/mL) was 2.54 and the “Precipitation on storage (observation)” value ([4]; 100 mg/mL in Milli-Q water) was “do not come out of solution”.
